From patent US9421269B2, “Saponin nano micelle, preparing method, application and pharmaceutical composition thereof” (FUJIAN SOUTH PHARMACEUTICAL CO., LTD, priority 2013, dated 2016)

Test: appearance of drug-loading micelle solution versus contrast sample
Format: physicochemical
Details: in 10 ml absolute ethanol

appearance of solution: murky
Structure (SMILES): Oc1ccc(C=Cc2cc(O)cc(O)c2)cc1 [resveratrol]
